Assay results published in paper PMC5833389 (Oncogenesis, 2018).
Where “and” joins values, the source holds several entries; their conditions need not be identical. Equal values may be shown once.

Assays:
PC-3 cells = assay: Proliferation assay, adherent monolayer, alamarBlue; type: cell-based, human; settings: Homo sapiens, PC-3, adherent monolayers
Description: PC-3 cells were incubated with compounds for 5 days at 37 °C/5% CO2, stained with alamarBlue® and fluorescence was determined (544 nm/590 nm). Data were analyzed as described above.

[1] = Tolerability of daily oral dosing in nude mice; type: in vivo; settings: daily oral doses of 50 mg/kg
Description: For efficacy studies, 1 × 10^7 MIA PaCa-2 or 1 × 10^6 BxPC-3 cells (with Matrigel® 50:50) were injected subcutaneously into the right flank of female BomTac:NMRI-Foxn1^nu mice (age 6 weeks, 24-30 g; Taconic, Denmark). […] Mice were randomized according to tumor volume when tumors had reached diameters of 6–8 mm. […] Natrosol-treated animals served as vehicle controls (n = 10). Tumor diameters were measured three times weekly using a caliper and volumes were calculated according to the formula “tumor volume = length × diameter^2 × π/6”. Mice were inspected daily for abnormalities and body weight was determined three times weekly. Animals were euthanized at the end of the study or prematurely, based on criteria including weight loss exceeding 20%, tumor necrosis or tumor volumes exceeding 1500 mm^3.

FES = biological target: T1, FES (Homo sapiens, UniProt P07332); assay: FES kinase assay, Z'-LYTE; type: biochemical
T1 construct: purchased Invitrogen/Life Technologies
Description: (§1) IC50 values on FAK and PYK2 were determined using the DELFIA® format, using kinase proteins obtained from Invitrogen (#PV3832, #PV4567) and biotinylated poly(Glu,Tyr) as substrate. Incubation in the presence of test compound was followed by detection of phosphorylated substrate using streptavidin-coated plates and Eu-N1 anti-phospho-Tyr PT66 antibody (#AD0040, VICTOR™ reader, both Perkin Elmer). Data were analyzed using GraphPad Prism. […] Data was fitted by iterative calculation using a sigmoidal curve analysis with variable Hill slope. In independent assays, IC50 values were determined using Z'-LYTE® technology, which is based on FRET (Invitrogen/Life Technologies). Selectivity was determined on the Invitrogen kinase panel at 1 µmol/L.

A-498 kidney xenograft = assay: Subcutaneous xenograft efficacy; type: in vivo, mice
Description: (§2) For efficacy studies, 1 × 10^7 MIA PaCa-2 or 1 × 10^6 BxPC-3 cells (with Matrigel® 50:50) were injected subcutaneously into the right flank of female BomTac:NMRI-Foxn1^nu mice (age 6 weeks, 24-30 g; Taconic, Denmark). These two and the following tumor models were established from adherently grown cells which were either subcutaneously injected in PBS (LoVo, SW480, A-498, Calu-6, NCI-H2122, A549, SK-OV-3, TOV-21G, AsPC-1, PC-3) or were injected with Matrigel (HCC-461, A2780, PANC-1 and Hs 746 T). For the Caki-1 tumor model tumor fragments were passaged in mice. Mice were randomized according to tumor volume when tumors had reached diameters of 6–8 mm. […] Natrosol-treated animals served as vehicle controls (n = 10). Tumor diameters were measured three times weekly using a caliper and volumes were calculated according to the formula “tumor volume = length × diameter^2 × π/6”. Mice were inspected daily for abnormalities and body weight was determined three times weekly. Animals were euthanized at the end of the study or prematurely, based on criteria including weight loss exceeding 20%, tumor necrosis or tumor volumes exceeding 1500 mm^3.
(§3) Statistical evaluation was performed using SAS 8.2 (SAS Institute, Cary, NC, USA) and Proc StatXact (Cytel Software, Cambridge, MA, USA).
(§4) where Td and Cd denote the median of the tumor volume in the treatment group and the control group at day d, respectively. A one-sided increasing Wilcoxon test was applied to compare each experimental group with the vehicle control, the p values were adjusted for multiple comparisons according to Bonferroni–Holm. The level of significance was fixed at α = 5%. An adjusted p value of <0.05 was considered to show a significant difference between groups.

[2] = system: BxPC-3 pancreas adenocarcinoma xenograft; assay: Subcutaneous xenograft efficacy; type: in vivo, mice; settings: BxPC-3, 50 mg/kg
Description: as §2, §3, §4

Caki-1 kidney xenograft = assay: Subcutaneous xenograft efficacy; type: in vivo, mice
Description: as §2, §3, §4

[3] = system: LoVo colon/rectum xenograft; assay: Subcutaneous xenograft efficacy; type: in vivo, mice
Description: as §2, §3, §4

[4] = system: PC-3 prostate carcinoma xenograft; assay: Subcutaneous xenograft efficacy; type: in vivo, mice
Description: as §2, §3, §4

[5] = system: SK-OV-3 ovarian carcinoma xenograft; assay: Subcutaneous xenograft efficacy; type: in vivo, mice
Description: as §2, §3, §4

TOV-21G ovary xenograft = assay: Subcutaneous xenograft efficacy; type: in vivo, mice
Description: as §2, §3, §4

[6] = system: AsPC-1 pancreas xenograft; assay: Subcutaneous xenograft efficacy; type: in vivo, mice
Description: as §2, §3, §4

Calu-6 lung xenograft = assay: Subcutaneous xenograft efficacy; type: in vivo, mice
Description: as §2, §3, §4

[7] = system: NCI-H2122 lung carcinoma xenograft; assay: Subcutaneous xenograft efficacy; type: in vivo, mice
Description: as §2, §3, §4

[8] = system: Hs 746T stomach xenograft; assay: Subcutaneous xenograft efficacy; type: in vivo, mice
Description: as §2, §3, §4

[9] = system: MIA PaCa-2 pancreas adenocarcinoma xenograft; assay: Subcutaneous xenograft efficacy; type: in vivo, mice
Description: as §2, §3, §4

[10] = system: SW480 colon carcinoma xenograft; assay: Subcutaneous xenograft efficacy; type: in vivo, mice
Description: as §2, §3, §4

HCC-461 lung xenograft = assay: Subcutaneous xenograft efficacy; type: in vivo, mice
Description: as §2, §3, §4

A549 lung xenograft = assay: Subcutaneous xenograft efficacy; type: in vivo, mice
Description: as §2, §3, §4

[11] = system: PANC-1 pancreas xenograft; assay: Subcutaneous xenograft efficacy; type: in vivo, mice
Description: as §2, §3, §4

A2780 ovary xenograft = assay: Subcutaneous xenograft efficacy; type: in vivo, mice
Description: as §2, §3, §4

PAK7 = biological target: T2, PAK7 (Homo sapiens, UniProt Q9P286); assay: PAK7 kinase assay, Z'-LYTE; type: biochemical
T2 construct: purchased Invitrogen/Life Technologies
Description: as §1

T1 sequence (P07332 whole entry): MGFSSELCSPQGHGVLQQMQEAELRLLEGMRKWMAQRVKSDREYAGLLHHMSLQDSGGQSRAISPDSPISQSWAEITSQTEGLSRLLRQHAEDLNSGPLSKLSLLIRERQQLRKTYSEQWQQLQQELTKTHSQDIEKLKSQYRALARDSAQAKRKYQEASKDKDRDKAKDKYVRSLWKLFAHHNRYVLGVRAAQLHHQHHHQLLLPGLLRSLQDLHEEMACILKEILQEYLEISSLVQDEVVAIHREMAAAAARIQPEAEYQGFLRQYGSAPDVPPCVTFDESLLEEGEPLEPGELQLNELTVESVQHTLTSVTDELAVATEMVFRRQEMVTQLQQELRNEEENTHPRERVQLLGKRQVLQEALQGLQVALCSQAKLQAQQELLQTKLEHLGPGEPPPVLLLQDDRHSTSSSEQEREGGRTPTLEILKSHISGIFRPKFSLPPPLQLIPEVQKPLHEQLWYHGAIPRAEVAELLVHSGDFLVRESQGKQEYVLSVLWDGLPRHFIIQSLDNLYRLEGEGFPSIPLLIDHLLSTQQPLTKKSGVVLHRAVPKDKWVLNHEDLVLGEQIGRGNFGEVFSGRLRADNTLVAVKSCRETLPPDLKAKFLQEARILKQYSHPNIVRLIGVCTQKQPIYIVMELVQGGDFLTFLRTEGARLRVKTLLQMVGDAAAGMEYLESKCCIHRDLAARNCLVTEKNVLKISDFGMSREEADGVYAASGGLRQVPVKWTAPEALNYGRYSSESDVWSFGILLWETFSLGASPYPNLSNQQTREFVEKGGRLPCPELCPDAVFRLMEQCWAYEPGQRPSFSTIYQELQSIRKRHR
T2 sequence (Q9P286 whole entry): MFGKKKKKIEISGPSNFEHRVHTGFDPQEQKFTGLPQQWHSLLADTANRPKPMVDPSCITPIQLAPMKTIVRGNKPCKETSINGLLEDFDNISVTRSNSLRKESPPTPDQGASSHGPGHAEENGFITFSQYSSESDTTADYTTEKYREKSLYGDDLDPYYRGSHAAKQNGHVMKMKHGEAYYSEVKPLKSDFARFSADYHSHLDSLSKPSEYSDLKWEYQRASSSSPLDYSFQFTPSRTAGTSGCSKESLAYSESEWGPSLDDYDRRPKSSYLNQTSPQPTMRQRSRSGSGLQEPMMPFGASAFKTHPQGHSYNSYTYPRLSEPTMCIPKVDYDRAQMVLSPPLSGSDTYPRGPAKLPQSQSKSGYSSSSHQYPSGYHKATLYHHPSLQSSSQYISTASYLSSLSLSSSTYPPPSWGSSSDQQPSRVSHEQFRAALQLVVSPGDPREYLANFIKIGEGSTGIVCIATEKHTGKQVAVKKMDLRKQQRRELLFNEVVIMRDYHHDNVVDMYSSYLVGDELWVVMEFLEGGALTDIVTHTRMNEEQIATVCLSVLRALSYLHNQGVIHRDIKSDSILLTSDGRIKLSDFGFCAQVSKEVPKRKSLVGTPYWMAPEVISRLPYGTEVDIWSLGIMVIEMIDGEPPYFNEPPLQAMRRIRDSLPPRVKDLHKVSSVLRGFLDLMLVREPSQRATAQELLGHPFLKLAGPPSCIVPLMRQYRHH

SMILES: COc1cc(C(=O)NC2CCN(C)CC2)c(F)cc1Nc1ncc(C(F)(F)F)c(Oc2cccc3c2C(=O)N(C)C3)n1 [BI 853520]
- EC50 (PC-3 cells): > 3000 nM
- tolerability (body weight gain, clinical signs) [1]: well tolerated
- IC50 (FES): 1040 nM
- Median TGI (A-498 kidney xenograft; A-498, 50 mg/kg once daily per os): 93%
- TGI (A-498 kidney xenograft; A-498 xenograft, Supplement Table 3): 93%
- Median TGI [2]: 29%
- Median TGI (Caki-1 kidney xenograft; Caki-1, 50 mg/kg once daily per os): 66%
- TGI (Caki-1 kidney xenograft; Caki-1 xenograft, Supplement Table 3): 66%
- TGI ([3]; LoVo xenograft, Supplement Table 3): 14%
- Median TGI ([3]; LoVo, 50 mg/kg once daily per os, 50 mg/kg): 14 (n.s.) % and 14%
- Median TGI ([4]; PC-3, 50 mg/kg once daily per os): 93%
- TGI ([4]; PC-3 xenograft, Supplement Table 3): 93%
- Median TGI ([5]; SK-OV-3, 50 mg/kg once daily per os): 57%
- TGI ([5]; SK-OV-3 xenograft, Supplement Table 3): 57%
- TGI (TOV-21G ovary xenograft; TOV-21G xenograft, Supplement Table 3): 93%
- Median TGI (TOV-21G ovary xenograft; TOV-21G, 50 mg/kg once daily per os): 93%
- Median TGI ([6]; AsPC-1, 50 mg/kg once daily per os): 13 (n.s.) % and 13%
- TGI ([6]; AsPC-1 xenograft, Supplement Table 3): 13%
- Median TGI (Calu-6 lung xenograft; Calu-6, 50 mg/kg once daily per os): 102%
- TGI (Calu-6 lung xenograft; Calu-6 xenograft, Supplement Table 3): 102%
- Median TGI ([7]; NCI-H2122, 50 mg/kg once daily per os): 45 (n.s.) % and 45%
- TGI ([7]; NCI-H2122 xenograft, Supplement Table 3): 45%
- TGI ([8]; Hs 746T xenograft, Supplement Table 3): 72%
- Median TGI ([8]; Hs 746T, 50 mg/kg once daily per os): 72%
- TGI ([9]; MIA PaCa-2, 12.5 mg/kg, second independent study): 89%
- partial regressions ([9]; MIA PaCa-2, 25 mg/kg once daily): 5 out of 10 tumors
- TGI ([9]; MIA PaCa-2, 25 mg/kg once daily, first study): 94%
- TGI ([9]; MIA PaCa-2, 25 mg/kg, second independent study): 96%
- partial regressions ([9]; MIA PaCa-2, 50 mg/kg once daily): 6 out of 10 tumors
- Median TGI ([9]; MIA PaCa-2, 50 mg/kg once daily per os): 104%
- TGI ([9]; MIA PaCa-2 xenograft, Supplement Table 3): 104%
- Median TGI ([10]; SW480, 50 mg/kg once daily per os): 26 (n.s.) % and 26%
- TGI ([10]; SW480 xenograft, Supplement Table 3): 26%
- Median TGI (HCC-461 lung xenograft; HCC-461, 50 mg/kg once daily per os): 102%
- TGI (HCC-461 lung xenograft; HCC-461 xenograft, Supplement Table 3): 102%
- Median TGI (A549 lung xenograft; A549, 50 mg/kg once daily per os): 15 (n.s.) % and 15%
- TGI (A549 lung xenograft; A549 xenograft, Supplement Table 3): 15%
- Median TGI ([11]; PANC-1, 50 mg/kg once daily per os): 83%
- TGI ([11]; PANC-1 xenograft, Supplement Table 3): 83%
- Median TGI (A2780 ovary xenograft; A2780, 50 mg/kg once daily per os): 89%
- TGI (A2780 ovary xenograft; A2780 xenograft, Supplement Table 3): 89%
- IC50 (PAK7): > 10000 nM
